Measured values taken from PubChem BioAssay AID1117352.
The source made the active and inactive calls. No rule for the calls is given here.

The compounds below were run on DLD-1 viability, CellTiter-Glo ATP luminescence (assay: DLD-1 viability decrease, dose response, CellTiter-Glo luminescence, IC50 (AID 1117352)).
In the case of `O=C1[O][Bi][O]c2ccccc21`, the IC50 is reported as > 20000 nM (inactive).
For `CC(=O)[O][Hg][c]1ccccc1`, the IC50 was 736 nM.
With `OCCN1CCN(CC/C=C2/c3ccccc3Sc3ccc(C(F)(F)F)cc32)CC1` the IC50 was 1470 nM.
`CCCCCCCCCCCCCC[N+](C)(C)C` gave an IC50 of 475 nM.
With `O=C(O)C1(C(=O)O)CCC1.[NH2-].[NH2-].[Pt+2]` the IC50 was > 20000 nM (inactive).
`Cc1ccc([N+](=O)[O-])[c]2c1[O][Hg]2` gave an IC50 of 1620 nM.
